# Patent publication US20240067613A1, “NOVEL QUINAZOLINE DERIVATIVES AS SOS1 INHIBITORS AND USE THEREOF” (HANMI PHARMACEUTICAL CO., LTD., priority 2020, published 2024)
# pIC50: −log10 of the molar value.
# Biological target: T1, SOS1 binding to KRAS G12C (Homo sapiens, UniProt Q07889)
# T1 construct: consisting of amino acid residues 564 to 1049 which are the catalytic domain; purchased Reaction Biology Corporation MSC-11-502 (SOS1-Strep); MSC-11-538 (KRAS G12C)
# T1 sequence (Q07889 564-1049): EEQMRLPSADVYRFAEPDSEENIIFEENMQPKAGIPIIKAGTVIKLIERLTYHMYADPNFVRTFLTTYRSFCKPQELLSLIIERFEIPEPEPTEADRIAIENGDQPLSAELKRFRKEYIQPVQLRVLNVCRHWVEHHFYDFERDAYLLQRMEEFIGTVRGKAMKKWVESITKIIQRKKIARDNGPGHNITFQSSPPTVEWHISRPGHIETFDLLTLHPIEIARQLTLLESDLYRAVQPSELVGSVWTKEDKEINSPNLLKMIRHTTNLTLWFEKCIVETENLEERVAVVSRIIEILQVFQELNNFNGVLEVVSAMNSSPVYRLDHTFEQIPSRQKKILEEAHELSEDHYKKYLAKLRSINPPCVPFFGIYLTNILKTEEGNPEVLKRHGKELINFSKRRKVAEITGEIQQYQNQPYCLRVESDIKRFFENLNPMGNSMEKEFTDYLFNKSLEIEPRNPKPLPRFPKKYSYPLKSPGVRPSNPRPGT
# Experiment: SOS1 GTP substitution inhibition test (HTRF/TR-FRET, KRAS G12C-SOS1 binding inhibitory ability)
# Assay type: biochemical
# Settings: HTRF, GST-KRAS G12C (2-169), SOS1-Strep (564-1049), 1.6, 8, 40, 200, 1,000 nM
# Experimental: In order to determine whether the substitution function of SOS1 binding to KRAS G12C is inhibited by the above-described example compounds, a homogeneous time-resolved fluorescence (HTRF) test was performed using G12C(#MSC-11-538) and SOS1-Strep(#MSC-11-502) purchased from Reaction Biology Corporation (MA, USA). The activity of SOS1 enzyme was determined by measuring the amount of GTP bound to KRAS G12C proteins, using the principle of time-resolved fluorescence energy transfer (TR-FRET). Based on the principle that terbium bound to the GST-binding antibody of the GST-KRAS G12C protein acts as a donor of fluorescence resonance energy transfer (FRET), and the GTP bound to the KRAS G12C protein is labeled with the fluorescent agent DY-647P1 and acts as a receiver, when the more GTP is bound to the KRAS G12C protein by the substitution reaction of SOS1 according to this test, the higher HTRF or FRET signal is measured. To summarize, glutathione S-transferase (GST)-tagged KRAS G12C proteins (consisting of amino acid residues 2 to 169) required for the reaction, streptavidin-tagged SOS1 proteins (consisting of amino acid residues 564 to 1049 which are the catalytic domain), anti-GST antibody (#61[…]) purchased from CISBIO corporation, nucleic acid (#NU-820-647P1) purchased from Jena Bioscience GmbH were mixed in a buffer solution formed from 10 mM HEPES pH7.4, 150 mM NaCl, 5 mM MgCl2, and 1 mM dithiothreitol (DTT), and the mixture was added to a 384-well plate and reacted at room temperature. Next, FRET signals were measured with a Perkin Elmer Envision microplate reader. In this case, an excitation signal (excitation) was measured at 320 nm, and an emission signal (emission) was measured at 615/665 nm. The fluorescence measurement value when the SOS1 protein was not included was calculated as a background signal value, and the background signal value was subtracted from all of the measured HTRF values. The fluorescence measurement value when the synthesized compound was not included was measured as a control value, and this value was selected as a reference point of 100%. For each of the example compounds, fluorescence was measured at concentrations of 1.6, 8, 40, 200, and 1,000 nM (5 points, 5-fold), and the 50% activity inhibition value (IC50) of each of the compounds was calculated using GraphPad Prism. When the IC50 value was 50 nM or less, the inhibitory ability was denoted as +++. When the IC50 value was more than 50 nM and 100 nM or less, the inhibitory ability was denoted as ++. When the IC50 value was more than 100 nM, the inhibitory ability was denoted as +.
row,SMILES,pIC50
1,"COc1cc2c(N[C@H](C)c3cc(N)cc(-c4ccoc4)c3)nc(C)nc2cc1C(=O)N1CCOCC1 [Example 28, (R)-(4-((1-(3-amino-5-(furan-3-yl)phenyl)ethyl)amino)-6-methoxy-2-methylquinazolin-7-yl)(morpholino)methanone]",≥ 7.30
2,"COc1cc2c(N[C@H](C)c3cc(N)cc(C(F)F)c3)nc(C)nc2cc1C(=O)N1CCOCC1 [Example 29, (R)-(4-((1-(3-amino-5-(difluoromethyl)phenyl)ethyl)amino)-6-methoxy-2-methylquinazolin-7-yl)(morpholino)methanone]",≥ 7.30
3,"COc1cc2c(N[C@H](C)c3cc(N)cc(-c4cncs4)c3)nc(C)nc2cc1C(=O)N1CCOCC1 [Example 30, (R)-(4-((1-(3-amino-5-(thiazole-5-yl)phenyl)ethyl)amino)-6-methoxy-2-methylquinazolin-7-yl)(morpholino)methanone]",7.00 to 7.30
4,"COc1cc2c(N[C@H](C)c3cc(N)cc(C(F)(F)F)c3)nc(C)nc2cc1CN1CCOCC1 [Example 34, (R)-N-(1-(3-amino-5-(trifluoromethyl)phenyl)ethyl)-6-methoxy-2-methyl-7-(morpholinomethyl)quinazoline-4-amine]",< 7.00
5,"COc1cc2c(N[C@H](C)c3cc(N)cc(C(F)F)c3F)nc(C)nc2cc1CN1CCOCC1 [Example 35, (R)-N-(1-(5-amino-3-(difluoromethyl)-2-fluorophenyl)ethyl)-6-methoxy-2-methyl-7-(morpholinomethyl)quinazoline-4-amine]",≥ 7.30
6,COc1cc2c(N[C@H](C)c3cc(N)cc(C(F)(F)F)c3)nc(C)nc2cc1OC1CCOCC1 [Example 36],7.00 to 7.30
7,"COc1cc2c(N[C@H](C)c3cc(N)cc(C(F)F)c3F)nc(C)nc2cc1OC1CCOCC1 [Example 37, (R)-N-(1-(5-amino-3-(difluoromethyl)-2-fluorophenyl)ethyl)-6-methoxy-2-methyl-7-((tetrahydro-2H-pyran-4-yl)oxy)quinazoline-4-amine]",< 7.00
8,"COc1cc2c(N[C@H](C)c3cc(N)cc(C(F)(F)F)c3)nc(C)nc2cc1OCC1CCOCC1 [Example 38, (R)-N-(1-(3-amino-5-(trifluoromethyl)phenyl)ethyl)-6-methoxy-2-methyl-7-((tetrahydro-2H-pyran-4-yl)methoxy)quinazoline-4-amine]",< 7.00
9,"COc1cc2c(N[C@H](C)c3cc(N)cc(C(F)(F)F)c3)nc(C)nc2cc1OCC1COC1 [Example 39, (R)-N-(1-(3-amino-5-(trifluoromethyl)phenyl)ethyl)-6-methoxy-2-methyl-7-(oxetane-3-ylmethoxy)quinazoline-4-amine]",< 7.00
10,"CNc1cc2c(N[C@H](C)c3cc(N)cc(C(F)F)c3F)nc(C)nc2cc1C(=O)N1CCOCC1 [Example 43, (R)-(4-((1-(5-amino-3-(difluoromethyl)-2-fluorophenyl)ethyl)amino)-2-methyl-6-(methylamino)quinazoline-7-yl)(morpholino)methanone]",≥ 7.30
11,"Cc1nc(N[C@H](C)c2cc(N)cc(C(F)(F)F)c2)c2cc(NC3CCCC3)c(C(=O)N3CCOCC3)cc2n1 [Example 45, (R)-(4-((1-(3-amino-5-(trifluoromethyl)phenyl)ethyl)amino)-6-(cyclopentylamino)-2-methylquinazoline-7-yl)(morpholino)methanone]",7.00 to 7.30
12,"Cc1nc(N[C@H](C)c2cc(N)cc(C(F)(F)F)c2)c2cc(NC3CCOCC3)c(C(=O)N3CCOCC3)cc2n1 [Example 48, (R)-(4-((1-(3-amino-5-(trifluoromethyl)phenyl)ethyl)amino)-2-methyl-6-((tetrahydro-2H-pyran-4-yl)amino)quinazoline-7-yl)(morpholino)methanone]",< 7.00
13,"CNc1cc2c(N[C@H](C)c3cc(N)cc(C(F)(F)F)c3)nc(C)nc2cc1CN1CCOCC1 [Example 49, (R)-N^4-(1-(3-amino-5-(trifluoromethyl)phenyl)ethyl)-N^6,2-dimethyl-7-(morpholinomethyl)quinazoline-4,6-diamine]",7.00 to 7.30

# The next lines start with the values.
row,pIC50,SMILES
1,7.00 to 7.30,"Cc1nc(N[C@H](C)c2cc(N)cc(C(F)(F)F)c2)c2cc(O[C@H]3CCOC3)c(C(=O)N3CCOCC3)cc2n1 [Example 27, (4-(((R)-1-(3-amino-5-(trifluoromethyl)phenyl)ethyl)amino)-2-methyl-6-(((S)-tetrahydrofuran-3-yl)oxy)quinazolin-7-yl)(morpholino)methanone]"
2,7.00 to 7.30,"CCNc1cc([C@@H](C)Nc2nc(C)nc3cc(C(=O)N4CCOCC4)c(OC)cc23)cc(C(F)(F)F)c1 [Example 31, (R)-(4-((1-(3-(ethylamino)-5-(trifluoromethyl)phenyl)ethyl)amino)-6-methoxy-2-methylquinazolin-7-yl)(morpholino)methanone]"
3,< 7.00,"COCCOc1cc2c(N[C@H](C)c3cc(N)cc(C(F)(F)F)c3)nc(C)nc2cc1C(=O)N1CCOCC1 [Example 32, methyl (R)-(4-((1-(3-amino-5-(trifluoromethyl)phenyl)ethyl)amino)-6-(2-methoxyethoxy)-2-methylquinazolin-7-yl)(morpholino)methanone]"
4,< 7.00,"COc1cc2c(N[C@H](C)c3cc(N)cc(C(F)(F)F)c3)nc(CF)nc2cc1C(=O)N1CCOCC1 [Example 33, (R)-(4-((1-(3-amino-5-(trifluoromethyl)phenyl)ethyl)amino)-2-(fluoromethyl)-6-methoxyquinazolin-7-yl)(morpholino)methanone]"
5,≥ 7.30,"CNc1cc2c(N[C@H](C)c3cc(N)cc(C(F)(F)F)c3)nc(C)nc2cc1C(=O)N1CCOCC1 [Example 40, (R)-(4-((1-(3-amino-5-(trifluoromethyl)phenyl)ethyl)amino)-2-methyl-6-(methylamino)quinazoline-7-yl)(morpholino)methanone]"
6,7.00 to 7.30,"Cc1nc(N[C@H](C)c2cc(N)cc(C(F)(F)F)c2)c2cc(N(C)C)c(C(=O)N3CCOCC3)cc2n1 [Example 41, (R)-(4-((1-(3-amino-5-(trifluoromethyl)phenyl)ethyl)amino)-6-(dimethylamino)-2-methylquinazoline-7-yl)(morpholino)methanone]"
7,< 7.00,"Cc1nc(N[C@H](C)c2cc(N)cc(C(F)(F)F)c2)c2cc(N3CCCC3)c(C(=O)N3CCOCC3)cc2n1 [Example 42, (R)-(4-((1-(3-amino-5-(trifluoromethyl)phenyl)ethyl)amino)-2-methyl-6-(pyrrolidin-1-yl)quinazoline-7-yl)(morpholino)methanone]"
8,7.00 to 7.30,"COCCNc1cc2c(N[C@H](C)c3cc(N)cc(C(F)(F)F)c3)nc(C)nc2cc1C(=O)N1CCOCC1 [Example 44, (R)-(4-((1-(3-amino-5-(trifluoromethyl)phenyl)ethyl)amino)-6-((2-methoxyethyl)amino)-2-methylquinazoline-7-yl)(morpholino)methanone]"
9,7.00 to 7.30,"CCNc1cc2c(N[C@H](C)c3cc(N)cc(C(F)(F)F)c3)nc(C)nc2cc1C(=O)N1CCOCC1 [Example 46, (R)-(4-((1-(3-amino-5-(trifluoromethyl)phenyl)ethyl)amino)-6-(ethylamino)-2-methylquinazoline-7-yl)(morpholino)methanone]"
10,7.00 to 7.30,"Cc1nc(N[C@H](C)c2cc(N)cc(C(F)(F)F)c2)c2cc(NC(C)C)c(C(=O)N3CCOCC3)cc2n1 [Example 47, (R)-(4-((1-(3-amino-5-(trifluoromethyl)phenyl)ethyl)amino)-6-(isopropylamino)-2-methylquinazoline-7-yl)(morpholino)methanone]"
